{"source": "patent US20090281156A1", "about": "“ENHANCING PHOTOSTABILIZATION OF OXYMETAZOLINE” (Schering-Plough Healthcare Products, Inc,, priority 2007, published 2009)", "key": {"[1]": {"settings": "in vivo; cited from earlier work"}, "[2]": {"settings": "exemplary conventional formulation; cited from earlier work"}, "[3]": {"assay": "ICH photostability testing of oxymetazoline HCl solutions (quartz container, twice ICH exposure)", "format": "physicochemical", "settings": "for drug degraded after UV light exposure: McIlvaine buffer pH=6", "procedure": "0.05% (w/v) oxymetazoline HCl solutions with pH ranging from 4 to 6 were prepared using McIlvaine buffer systems (Solutions I-III). At each pH level, 0.05% oxymetazoline HCl solutions containing either Povidone 29-32 (approximately 3% w/v) or PEG 1450 (approximately 5% w/v) were also made ([…]).\nExample embodiments were tested for photostability according to methods described in ICH Harmonized Tripartite Guidelines Stability Testing: Photostability Testing of New Drug Substances and Products. Each sample for photostability studies was placed in an enclosed quartz container and exposed to twice the exposure required by ICH photostability guideline (total exposure of 2.4 million lux hours and an integrated near UV energy of 400 watt hours/square meter).\nAll of the observed oxymetazoline HCl degradation peaks were calculated and presented in percentage."}}, "note": "Where a name gives a salt, the structure may show the parent alone."}
{"smiles": "CN1CCC(=C2c3ccccc3CCc3cccnc32)CC1", "note": "[Azatadine]", "values": [{"measurement": "elimination half-life", "setting": "[1]", "result": "9 to 12", "unit": "h"}]}
{"smiles": "CCOC(=O)N1CCC(=C2c3ccc(Cl)cc3CCc3cccnc32)CC1", "note": "[loratadine]", "values": [{"measurement": "antihistaminic effect lasts", "setting": "[2]", "result": "> 24", "unit": "h"}]}
{"smiles": "Cc1cc(C(C)(C)C)c(O)c(C)c1CC1=NCCN1", "note": "[oxymetazoline HCl, 6-tert-butyl-3-(2-imidazolin-2-ylmethyl)-2,4-dimentylphenol hydrochloride]", "values": [{"measurement": "drug degraded after UV light exposure", "setting": "[3]; 24 hours of UV light exposure", "result": "roughly 9%"}, {"measurement": "drug degraded after UV light exposure", "setting": "[3]; 40 hours of UV light exposure", "result": "~72", "unit": "%"}, {"measurement": "light sensitivity", "setting": "[3]; aqueous solution", "result": "light sensitive"}, {"measurement": "increase in the total degradation on incorporating PEG 1450", "setting": "[3]; pH 5, T=40 hours, PEG 1450 approximately 5% w/v", "result": "roughly 4 fold"}, {"measurement": "increase in the total photodegradation in presence of Povidone K29-32", "setting": "[3]; pH=6, T=40 hours, Povidone K29-32 approximately 3% w/v", "result": "about 21%"}]}
